From patent US20250144050A1, “AMINOTHIOL-CONJUGATES, COMPOSITIONS, AND METHODS OF USE THEREOF” (THE BURLINGTON HC RESEARCH GROUP, INC., priority 2021, published 2025)
Like-named read-outs stand apart in the source and are kept apart here.

Experiments:
[1] = tested on: human cancer cell lines; assay: CyQUANT cell viability assay, 48-hour exposure, panel averages; details: for fold greater cytostatic effect than amifostine: HCC38, PC3, SKOV3, TOV21G (amifostine GI50 <100 μM); for fold more potent than amifostine as a cytostatic agent, averaging: averages of dose-response metrics across panel
Procedure: (§1) After drug treatments, fluorescence readings from 96-well plates were obtained using the CyQUANT dye and compared to standard curves for each cell line to determine cell viability. […] Trypan blue exclusion was used to estimate cell numbers in a few pilot experiments and was thereafter applied to confirm cell death.
A series of experiments was conducted to assess the relative efficacy of 4SP65, 1LP65, and amifostine as single agents in the same human cancer cell lines. First, the effectiveness of 4SP65 was tested against 15 cancer cell lines derived from seven tissues. […] The effectiveness of 0 to ≤500 μM amifostine was tested in sets of cancer cell lines reported to have either medium, high, or no expression of alkaline phosphatase.
(§2) Trans. R Soc. Lond. […] Using cell numbers based on fluorescence measurements and standard curves [time zero, (Tz), control growth, (C), and test growth in the presence of drug at five or more concentration levels (Ti)], the percentage growth was calculated at each drug concentration level. The percentage of growth inhibition was calculated as follows:
(§3) The LC50/99 was calculated using Equation 2=−50 and Eq. 2=−99, respectively. […] For NHMECs, the relationships between drug exposure levels and fluorescence units were used to define dose-response metrics. The selectivity index (SI) values for individual drug treatments were calculated as IC50 levels in NHMECs divided by the IC50 values in cancer cell lines.

[2] = tested on: normal human mammary epithelial cells (NHMECs); assay: Growth of NHMEC strains after 48-hour exposure; assay type: cell-based; details: for average effect per unit dose (% growth÷exposure concentration) / average effect per unit dose: NHMECs; for cell growth as % of control cell values: highest drug level 500 μM; for growth relative to control cells: 48-hour
Source text: Normal human mammary epithelial cell (NHMEC) strains used to assess potential cytotoxicity of 4SP65/1LP65 were established from reduction mammoplasty tissue from a healthy donor (#M99005 or ‘Strain-1’) (Keshava et al., “Induction of CYP1A1 and CYP1B1 and Formation of Carcinogen-DNA Adducts in Normal Human Mammary Epithelial Cells Treated with Benzo[a]pyrene,” Cancer Lett. 221 (2): 213-24 (2005), which is hereby incorporated by reference in its entirety) or purchased from ATCC (Manassas, VA, USA; batch #70043304 or ‘Strain-2’) or Cell Applications (San Diego, CA, USA; lot #1669 or ‘Strain-3’). Human cancer cell lines including HCC38 (Cat #CRL2314™), MDA-MB-231 (Cat #HTB-26™), A549/ATCC (Cat #CL-185™), National Cancer Institute (NCI)-H460 (Cat #HTB177™), NCI-H1437 (Cat #CRL-5872™), NCI-H1975 (Cat #CRL-5908™), DU145 (Cat #HTB-81™), LNCaP (Cat #CRL-1740™), PC3 (Cat #CRL-1435™), PANC1 (Cat #CRL-1469™), SKOV3 (Cat #HTB-75™), and HL60 (Cat #CCL-240™), which were free of mycoplasma, were purchased from ATCC. HMESO1 (CLS Cell Lines Service GmbH, Cat #BHC11100791), PPMMill, and TOV21G cells (ATTC Cat #CRL-11730), obtained from Dr. Brian Cunniff, were verified to be Mycoplasma negative using the LookOutR Mycoplasma PCR Detection Kit (Sigma-Aldrich, Cat #MP0035) and to match previously annotated DNA fingerprints by the Vermont Integrative Genomics Resource DNA Analysis Facility.
To assess the effects of 4SP65 on the growth of normal epithelium, experiments were performed using NHMEC strains from three donors (Keshava et al., “Induction of CYP1A1 and CYP1B1 and Formation of Carcinogen-DNA Adducts in Normal Human Mammary Epithelial Cells Treated with Benzo[a]pyrene,” Cancer Lett. 221 (2): 213-24 (2005), which is hereby incorporated by reference in its entirety). Strain-1 NHMECs were plated at 5,000 cells/well in 24-well dishes and allowed to reach 50% confluence before treatment with 0-300 μM 4SP65 for 48 hours. Cell viability was determined using a hemocytometer and trypan blue exclusion assay. Two other NHMEC strains, exposed to 0-150 μM 4SP65 or 0-500 μM 1LP65, were handled in the same fashion except that viability of cells in 96-well plates was determined using CyQUANT dye.

[3] = tested on: PC3 cells; assay: CyQUANT cell viability assay, 48-hour exposure; assay type: cell-based; details: Homo sapiens, PC-3
Procedure: as §1
A series of experiments was conducted to assess the relative efficacy of 4SP65, 1LP65, and amifostine as single agents in the same human cancer cell lines. First, the effectiveness of 4SP65 was tested against 15 cancer cell lines derived from seven tissues. […]
as §2, with “Trans.” for “Trans. R Soc. Lond.”
as §3

[4] = 48-hour, 15 cancer cell lines (4SP65), 11 (1LP65)

In the case of `COCCOCCOCCOCCOCCOCCSSCCNCCCN` [1LP65, m-PEG6-S-S-WR1065], the “LC99, average across cell lines” value [1, 4] is reported as 126 ± 15.8 µM, the “LC99, range” value [1, 4] is reported as 83.5 to 234 µM and the “TGI, average across cell lines” value [1, 4] is reported as 69.3 ± 10.3 µM. The “TGI, range” value [1, 4] was 32.7 to 126 µM, the “fold greater cytostatic effect than amifostine” value [1] was 2.1 fold and the GI50 ([1]; Homo sapiens, 48 h, read-out: GI50, average across cell lines, 48-hour, 15 cancer cell lines (4SP65), 11 (1LP65)) was 41.2 ± 5.4 µM. The GI50 ([1]; Homo sapiens, 48 h, read-out: GI50, range for individual cell lines, 48-hour, 15 cancer cell lines (4SP65), 11 (1LP65)) was 21.3 to 77.7 µM, the CC50 ([1]; Homo sapiens, 48 h, read-out: LC50, average across cell lines) was 94.6 ± 12.8 µM and the CC50 ([1]; Homo sapiens, 48 h, read-out: LC50, range) was 51.3 to 157 µM. The GI50 ([1]; Homo sapiens, read-out: average GI50, HCC38, PC3, SKOV3, and TOV21G) was 30.4 µM, the “fold more potent than amifostine as a cytostatic agent, averaging” value [1] was 5.9 fold and the “cytotoxicity in NHMECs” value ([2]; 500 μM) was “not cytotoxic”. For the same molecule, the IC50 ([2]; Homo sapiens, Epithelial cell, 48 h, Strain-2 cells, 48 hours, read-out: IC50) was greater than 500 µM, the IC50 ([2]; Homo sapiens, Epithelial cell, 48 h, Strain-3 cells, 48 hours, read-out: IC50) was 210 µM and the IC50 ([2]; Homo sapiens, Epithelial cell, Strain-2 and Strain-3, read-out: IC50, averaging over strains) was greater than 355 µM. The “average effect per unit dose (% growth÷exposure concentration)” value ([2]; 90 μM) was 2.9, the “average effect per unit dose (% growth÷exposure concentration)” value ([2]; 150 μM) was 0.31 and the “average effect per unit dose” value ([2]; 300 μM) was 0.06. The “average effect per unit dose” value ([2]; 500 μM) was 0.03, the “cell growth as % of control cell values” ([2]; Strain-2, 48 hours) was 19.5% and the “cell growth as % of control cell values” ([2]; Strain-3, 48 hours) was 12.5%. For the same molecule, the GI50 [3] was 22.9 µM.
For 4-star PEG-S-S-WR1065 [4SP65], the “fold greater potency than predicted by ratio of four vs one WR1065/molecule” value ([1]; 4SP65 versus 1LP65) was roughly 2.5 fold, the “LC99, average across cell lines” value [1, 4] was 11.2 µM and the “LC99, range” value [1, 4] was 3.0 to 21.1 µM. For the same molecule, the “TGI, average across cell lines” value [1, 4] was 6.8 ± 1.1 µM, the “TGI, range” value [1, 4] was 2.0 to 16.3 µM and the “fold greater cytostatic effect than amifostine” value [1] was 38 fold. The “fold more potent than 1LP65, averaging” value ([1]; across dose-response metrics) was 10.4 fold, the “fold more potent than amifostine as a cytostatic agent, averaging” value [1] was 55 fold and the GI50 ([1]; read-out: GI50, average across cell lines, 48-hour, 15 cancer cell lines (4SP65), 11 (1LP65)) was 4.1 ± 0.8 µM. For the same molecule, the GI50 ([1]; read-out: average GI50, HCC38, PC3, SKOV3, and TOV21G) was 1.7 µM, the “average effect per unit dose (% growth÷exposure concentration)” value ([2]; 9 μM) was 8.7 and the “average effect per unit dose (% growth÷exposure concentration)” value ([2]; 30 μM) was 1.70. The “average effect per unit dose (% growth÷exposure concentration)” value ([2]; 90 μM) was 0.23, the “average effect per unit dose (% growth÷exposure concentration)” value ([2]; 150 μM) was 0.058 and the “growth compared to sham-exposed control cells” value ([2]; Strain-1, 5 μM, 48 hours) was 336%. For the same molecule, the “growth compared to sham-exposed control cells” value ([2]; Strain-1, 15 μM, 48 hours) was 286%, the “growth as % of control cell growth” value ([2]; Strain-1, 50 μM, 48 hours) was 68% and the growth pattern ([2]; Strain-1, 150 μM, 48 hours) was “re-established a predominant pattern of growth enhancement”. The IC50 ([2]; Strain-1 and Strain-2 NHMECs) was “could not be calculated or predicted”, the GI50 ([2]; Strain-1 and Strain-2 of NHMECs) was “could not be calculated or predicted” and the “growth relative to control cells” value ([2]; Strain-2 and Strain-3, 3 μM) was 162%±7%. For the same molecule, the “growth relative to control cells” value ([2]; Strain-2 and Strain-3, 9 μM) was 78%±12%, the “growth relative to control cells” value ([2]; Strain-2 and Strain-3, 30 μM) was 52%±8% and the “growth relative to control cells” value ([2]; Strain-2 and Strain-3, 50 μM (so in the source)) was 21%±4%. For the same molecule, the “growth relative to control cells” value ([2]; Strain-2 and Strain-3, 150 μM) was 8.7%±2%, the IC50 ([2]; Strain-3 cells, 48 hours, read-out: IC50) was 76 ± 14 µM and the GI50 ([2]; strain 3 of NHMECs, read-out: GI50) was 41.4 ± 6.2 µM.
